Test results as given in patent US10857136B2, “Compounds for use in the prevention and/or treatment of non-alcoholic fat liver disease and non-alcoholic steatohepatitis” (SJT MOLECULAR RESEARCH, SL, priority 2017, dated 2020).

Legend:
[1] = tested on: DIO mice (C57Bl/6 J male mice); experiment: Liver lipid content, 36 days assay in DIO mice (colorimetric kits); assay type: in vivo; settings: 50 mg/kg orally twice daily, after 36 days, vs saline control
Experimental: To assess the performance of the compounds disclosed in decreasing hepatic lipid content, DIO mice (C57Bl/6 J male mice) were treated with a hydrochloride salt of compound 4a; and with compound 7a during 36 days, versus a control of DIO mice treated with saline (0.9% NaCl) and versus DIO mice treated with Metformin as a positive control.
For the assessment, 60 C57Bl/6 J male mice (16-week-old at delivery and 40 g of average weight), obtained from Charles River France, were put on high fat diet for 10 weeks. The animals were housed in ventilated and enriched housing cages (310×125×127 mm^3) throughout the experimental phase. Animals' cages litters were changed at least once a week. Mice were housed in groups of 10 mice on a normal 12 hours light cycle (at 08:00 pm lights were switched off), at 22±2° C. and 50±10% relative humidity. After reception, mice were maintained for three additional acclimation weeks. During the whole assessment (acclimation+treatment phase) a high fat diet (D12492 purchased from Research Diet Inc; 60% fat) and tap water were provided ad libitum.
After the acclimation period, mice were fasted for 6 hours and blood glucose and plasma insulin were measured. Ten animals, those with lower blood glucose/plasma insulin, were discarded from the study. Then, the others were randomized into 5 homogenous groups (n=10 mice per group) according to their blood glucose/plasma insulin levels (HOMA-IR) and body weight. Mice were treated orally twice daily for 36 days with either saline solution (control group), SJT test compound (4a, 7a; 50 mg/kg) or metformin (150 mg/kg).
Finally, mice were sacrificed, and liver was collected, weighted and stored at −80° C. for additional analysis. Liver samples were dissected for liver lipids assay. Liver lipids were assayed using colorimetric commercial assay kits, from liver samples homogenate after lipid solubilization in deoxycholate as described by Miao et al., J Lipid Res, 2004, 45, 1410-17. Samples were homogenized with an ultrasound probe with 500 μl distilled water during few seconds. Then cholic acid at 1% is added to make lipids soluble. The measurement of the different lipids was then performed using colorimetric kits from Sobioda, France.

[2] = tested on: DIO-NASH mice (C57Bl/6J male mice); experiment: NAFLD activity score (NAS) of liver biopsies pre and post study in DIO-NASH mice; assay type: in vivo; settings: 50 mg/kg, p.o., b.i.d., 8 weeks, score range 0-8
Experimental: Non-alcoholic fat liver disease (NAFLD) activity score or NAS was evaluated by measurements of steatosis, lobular inflammation, ballooning degeneration and […] of the liver.
Total NAS score represents the sum of scores for steatosis, inflammation, and ballooning, and ranges from 0-8 as follows:
The % of steatosis degree refers to the amount of surface area of the sample involved by steatosis as evaluated on low to medium power examination.
The value given to measure inflammation corresponds to the number of inflammatory foci per field using a 200× magnification. A focus is defined as a cluster, not a row, of >3 inflammatory cells. Acidophil bodies are not included in the inflammatory assessment.
The ballooning degeneration value is measured by the amount of balloon cells, corresponding to degenerated hepatocytes with cleared cytoplasm, enlargement, swelling, rounding and reticulated cytoplasm. […]
Liver samples were fixed in formalin, paraffin embedded, and sections were stained with hematoxylin and eosin (H&E) and Sirius Red. Samples are scored for NAS and fibrosis using of the clinical criteria outlined by Kleiner et al. 2005. […]

SMILES: COc1ccc(-c2nc(C(=O)NCCN)cc3c2[nH]c2ccccc23)cc1 [Compound 4a, N(-ethylamine)-1-benzosubstituted-β-carboline-3-carboxamide]
- hepatic cholesterol [1]: lower lipid levels than untreated control animals
- hepatic fatty acids [1]: lower lipid levels than untreated control animals
- hepatic triglycerides [1]: lower lipid levels than untreated control animals
- NAS score change of the liver biopsy pre and post study [2]: generally reduced the NAS score
